# Key:
# [1] = Protein binding in rat plasma assessed as unbound fraction; assay type: ADME, cell-free
# [2] = Unbound brain to plasma concentration ratio in mouse at 5 mg/kg, po; assay type: ADME, organism-based; details: read-out: K(p,uu,brain)
# [3] = Protein binding in mouse plasma assessed as unbound fraction; assay type: ADME, cell-free
# P2X purinoceptor 7 [4] = biological target: T1, P2X purinoceptor 7 (Homo sapiens, UniProt Q99572); experiment: Antagonist activity at P2X7R in LPS-stimulated human THP1 cells assessed as inhibition of BzATP-induced IL-1beta release preincubated for 30 mins followed by BzATP stimulation and measured after 30 mins by sandwich ELISA
# T1 sequence (Q99572 whole entry): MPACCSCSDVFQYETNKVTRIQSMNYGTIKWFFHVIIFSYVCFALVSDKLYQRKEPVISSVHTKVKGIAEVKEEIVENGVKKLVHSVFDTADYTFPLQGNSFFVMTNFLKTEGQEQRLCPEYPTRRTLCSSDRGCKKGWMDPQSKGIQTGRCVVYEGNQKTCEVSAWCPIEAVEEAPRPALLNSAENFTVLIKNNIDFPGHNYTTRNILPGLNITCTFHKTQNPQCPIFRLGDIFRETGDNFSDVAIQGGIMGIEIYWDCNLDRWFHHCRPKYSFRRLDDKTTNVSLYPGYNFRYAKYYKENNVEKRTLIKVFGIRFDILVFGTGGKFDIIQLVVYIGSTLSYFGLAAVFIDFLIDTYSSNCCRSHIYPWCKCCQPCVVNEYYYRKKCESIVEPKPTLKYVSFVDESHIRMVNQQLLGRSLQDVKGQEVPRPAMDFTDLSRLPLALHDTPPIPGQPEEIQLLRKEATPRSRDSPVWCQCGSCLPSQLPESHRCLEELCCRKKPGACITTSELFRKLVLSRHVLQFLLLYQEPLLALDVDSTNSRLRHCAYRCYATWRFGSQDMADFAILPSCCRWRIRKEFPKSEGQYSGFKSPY
# [5] = Protein binding in human plasma; assay type: ADME, cell-free; details: read-out: PPB
# [6] = Clearance in mouse at 0.2 mg/kg, iv or 0.5 mg/kg, po; assay type: ADME, organism-based; details: in vivo
# [7] = Dose normalized AUC in mouse at 0.2 mg/kg, iv; assay type: ADME, organism-based; details: in vivo
# [8] = Protein binding in rat plasma; assay type: ADME, cell-free; details: read-out: PPB
# [9] = Protein binding in mouse plasma assessed as unbound fraction at 5 mg/kg, po; assay type: ADME, organism-based
# [10] = AUC in mouse plasma at 5 mg/kg, po; assay type: ADME, organism-based
# [11] = Intrinsic clearance in rat liver microsomes; assay type: ADME, Microsome; details: read-out: CLH
# [12] = Protein binding in human plasma assessed as unbound fraction; assay type: ADME, cell-free
# [13] = Volume of distribution in mouse at 0.2 mg/kg, iv or 0.5 mg/kg, po; assay type: ADME, organism-based; details: in vivo
# [14] = Protein binding in mouse brain assessed as unbound fraction at 5 mg/kg, po; assay type: ADME, organism-based
# [15] = biological target: Voltage-gated inwardly rectifying potassium channel KCNH2 (Homo sapiens, UniProt Q12809); experiment: Activity at human ERG
# [16] = Dose normalized Cmax in mouse at 0.2 mg/kg, iv; assay type: ADME, organism-based; details: in vivo
# MDR [17] = experiment: Efflux ratio of apparent permeability in MDCK cells expressing MDR; assay type: ADME, cell-based, Canis lupus familiaris; details: dog, MDCK-MDR1
# P2X purinoceptor 7 [18] = biological target: T2, P2X purinoceptor 7 (Mus musculus, UniProt Q9Z1M0); experiment: Antagonist activity at mouse P2X7 receptor assessed as inhibition of BzATP-induced YO PRO dye uptake preincubated for 20 mins followed by YO PRO dye and BzATP addition measured after 30 mins by fluorescence assay
# T2 sequence (Q9Z1M0 whole entry): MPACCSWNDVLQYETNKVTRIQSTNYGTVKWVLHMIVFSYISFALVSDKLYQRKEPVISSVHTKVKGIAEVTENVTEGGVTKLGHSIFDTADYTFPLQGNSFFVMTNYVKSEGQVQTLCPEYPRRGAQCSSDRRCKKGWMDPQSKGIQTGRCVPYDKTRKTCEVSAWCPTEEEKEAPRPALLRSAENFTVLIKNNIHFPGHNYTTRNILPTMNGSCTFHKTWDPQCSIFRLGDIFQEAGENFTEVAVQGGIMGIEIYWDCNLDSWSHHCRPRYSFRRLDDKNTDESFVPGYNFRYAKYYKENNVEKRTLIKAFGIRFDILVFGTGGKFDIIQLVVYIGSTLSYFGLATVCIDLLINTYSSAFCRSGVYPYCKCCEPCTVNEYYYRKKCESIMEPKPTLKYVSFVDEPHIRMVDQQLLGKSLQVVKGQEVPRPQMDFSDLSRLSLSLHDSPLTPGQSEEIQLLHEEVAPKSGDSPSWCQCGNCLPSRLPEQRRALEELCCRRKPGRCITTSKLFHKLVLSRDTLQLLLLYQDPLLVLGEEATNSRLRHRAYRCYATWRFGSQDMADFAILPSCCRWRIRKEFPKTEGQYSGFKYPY
# MDR [19] = experiment: Apparent permeability across apical to basolateral side in MDCK cells expressing MDR; assay type: ADME, cell-based, Canis lupus familiaris; details: dog, MDCK-MDR1
# P2X purinoceptor 7 [20] = biological target: T1, P2X purinoceptor 7; experiment: Antagonist activity at human P2X7 receptor expressed in HEK293 cells assessed as inhibition of BzATP-induced YO PRO dye uptake preincubated for 20 mins followed by YO PRO dye and BzATP addition measured after 30 mins by fluorescence assay; assay type: cell-based
# [21] = Protein binding in mouse plasma; assay type: ADME, cell-free; details: read-out: PPB
# [22] = AUC in mouse brain at 5 mg/kg, po; assay type: ADME, organism-based
# [23] = Dose normalized AUC in mouse at 0.5 mg/kg, po; assay type: ADME, organism-based; details: in vivo
# P2X purinoceptor 7 [24] = biological target: T3, P2X purinoceptor 7 (Rattus norvegicus, UniProt Q64663); experiment: Antagonist activity at rat P2X7 receptor assessed as inhibition of BzATP-induced YO PRO dye uptake preincubated for 20 mins followed by YO PRO dye and BzATP addition measured after 30 mins by fluorescence assay
# T3 sequence (Q64663 whole entry): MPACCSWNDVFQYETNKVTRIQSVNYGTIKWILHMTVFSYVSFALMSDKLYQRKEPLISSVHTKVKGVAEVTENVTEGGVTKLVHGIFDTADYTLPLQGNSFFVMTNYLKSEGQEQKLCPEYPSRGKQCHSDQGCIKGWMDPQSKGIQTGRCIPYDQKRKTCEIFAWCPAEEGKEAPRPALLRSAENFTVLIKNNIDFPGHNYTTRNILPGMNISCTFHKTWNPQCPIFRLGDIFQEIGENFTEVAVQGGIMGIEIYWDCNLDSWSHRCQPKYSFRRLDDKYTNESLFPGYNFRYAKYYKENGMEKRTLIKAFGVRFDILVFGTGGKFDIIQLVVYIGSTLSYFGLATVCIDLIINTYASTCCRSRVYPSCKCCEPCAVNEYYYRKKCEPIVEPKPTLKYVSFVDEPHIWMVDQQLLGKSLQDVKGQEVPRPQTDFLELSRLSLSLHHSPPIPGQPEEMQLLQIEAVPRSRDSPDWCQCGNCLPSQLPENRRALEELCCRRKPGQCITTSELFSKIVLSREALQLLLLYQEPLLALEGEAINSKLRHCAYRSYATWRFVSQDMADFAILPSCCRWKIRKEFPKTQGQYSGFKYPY
# [25] = Intrinsic clearance in human liver microsomes; assay type: ADME, Microsome; details: read-out: CLH
# [26] = Terminal half life in mouse at 0.2 mg/kg, iv or 0.5 mg/kg, po; assay type: ADME, organism-based; details: in vivo, read-out: beta t1/2 (converted)
# [27] = Dose normalized Cmax in mouse at 0.5 mg/kg, po; assay type: ADME, organism-based; details: in vivo
# [28] = Intrinsic clearance in mouse liver microsomes; assay type: ADME, Microsome; details: read-out: CLH
# [29] = Oral bioavailability in mouse at 0.5 mg/kg; assay type: ADME, organism-based; details: in vivo
# Chain of Voltage-gated inwardly rectifying potassium channel KCNH2 (Q12809 whole entry): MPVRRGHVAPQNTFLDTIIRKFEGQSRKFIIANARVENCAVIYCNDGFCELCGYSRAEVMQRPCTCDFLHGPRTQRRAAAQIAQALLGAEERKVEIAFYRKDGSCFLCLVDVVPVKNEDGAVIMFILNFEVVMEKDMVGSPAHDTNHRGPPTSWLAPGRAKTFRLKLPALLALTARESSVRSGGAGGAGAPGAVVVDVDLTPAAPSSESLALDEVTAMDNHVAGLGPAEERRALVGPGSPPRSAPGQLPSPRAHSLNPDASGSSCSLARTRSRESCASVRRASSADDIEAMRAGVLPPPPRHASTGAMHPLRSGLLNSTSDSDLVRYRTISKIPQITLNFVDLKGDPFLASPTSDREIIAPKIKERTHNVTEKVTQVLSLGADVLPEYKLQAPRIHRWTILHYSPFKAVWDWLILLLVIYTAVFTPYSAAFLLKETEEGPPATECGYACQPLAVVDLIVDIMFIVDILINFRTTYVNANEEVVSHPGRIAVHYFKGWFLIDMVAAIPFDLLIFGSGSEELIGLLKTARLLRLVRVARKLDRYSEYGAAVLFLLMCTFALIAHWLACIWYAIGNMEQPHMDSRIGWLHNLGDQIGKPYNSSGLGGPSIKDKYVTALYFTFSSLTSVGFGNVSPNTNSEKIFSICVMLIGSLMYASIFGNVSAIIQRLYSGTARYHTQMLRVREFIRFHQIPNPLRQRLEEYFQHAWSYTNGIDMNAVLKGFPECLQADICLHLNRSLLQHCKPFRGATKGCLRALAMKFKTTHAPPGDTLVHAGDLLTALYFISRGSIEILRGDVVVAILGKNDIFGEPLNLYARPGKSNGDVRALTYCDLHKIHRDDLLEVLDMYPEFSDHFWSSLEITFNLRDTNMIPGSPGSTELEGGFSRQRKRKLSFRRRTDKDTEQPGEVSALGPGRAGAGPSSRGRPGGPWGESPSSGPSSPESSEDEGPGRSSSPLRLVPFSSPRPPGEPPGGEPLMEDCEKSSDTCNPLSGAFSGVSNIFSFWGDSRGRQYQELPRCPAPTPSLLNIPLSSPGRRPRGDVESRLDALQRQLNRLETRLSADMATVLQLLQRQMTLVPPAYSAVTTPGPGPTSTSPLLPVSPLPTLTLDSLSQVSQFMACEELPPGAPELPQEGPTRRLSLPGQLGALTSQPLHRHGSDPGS
structure (smiles),measurement,setting,value
O=C(NCC1(O)CCCC(F)(F)C1)c1c(Cl)ccc2nc(N3CC[C@H](F)C3)ccc12 (some centres undefined),fraction unbound,[1],0.089
same,Kp uu,[2],0.13
same,fraction unbound,[3],0.079
same,IC50,P2X purinoceptor 7 [4],0.0267 µM
same,fraction unbound,[5],0.03 to 0.1
same,clearance,[6],36.8 mL/min/kg
same,AUC/dose,[7],451 ng·h/mL
same,fraction unbound,[8],0.03 to 0.1
same,fraction unbound,[9],0.079
same,AUC,[10],136 ng·h/mL
same,microsomal CLint,[11],23 µL/min/mg
same,fraction unbound,[12],0.098
same,Vd,[13],1.19 L/kg
same,fraction unbound,[14],0.11
same,Activity,[15],> 30 µM
same,Cmax/dose,[16],738 ng/mL
same,efflux ratio,MDR [17],6.3
same,IC50,P2X purinoceptor 7 [18],6.73 µM
same,Papp A→B,MDR [19],8.9 to 9 ×10⁻⁶ cm/s
same,IC50,P2X purinoceptor 7 [20],0.018 µM
same,fraction unbound,[21],0.03 to 0.1
same,AUC,[22],12.6 ng·h/mL
same,AUC/dose,[23],143 ng·h/mL
same,IC50,P2X purinoceptor 7 [24],9.4 µM
same,microsomal CLint,[25],20 µL/min/mg
same,half-life,[26],25.8 min
same,Cmax/dose,[27],160 ng/mL
same,microsomal CLint,[28],34 µL/min/mg
same,bioavailability,[29],32%

# From ChEMBL document CHEMBL4340547, “Synthesis and SAR development of quinoline analogs as novel P2X7 receptor antagonists” (Bioorg Med Chem Lett, 2019)
